Test systems include ACHN renal; CAKI-1 renal; LOX IMVI melanoma; HCC-2998 colon; HOP-62 NSCLC; EKVX NSCLC; OVCAR-3 ovarian; COLO 205 colon; 786-0 renal; MALME-3M melanoma.
Assay in all cases: growth of human tumour cells (NCI), 48 h

Molecules are shown by their SMILES.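 How tested: cells in 96-well plates exposed to compound for 48 hours at five concentrations. TGI is the concentration that stops growth completely.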

Take `CCCCCCc1cc(C=O)sc1-c1ccc(-c2sc(-c3ccc(-c4ccc(-c5cc(CCCCCC)c(-c6ccc(-c7sc(C=O)cc7CCCCCC)s6)s5)s4)s3)cc2CCCCCC)s1`: the TGI with ACHN renal, in the assay with CAKI-1 renal, in the assay with LOX IMVI melanoma, in the assay on HCC-2998 colon, in the assay on HOP-62 NSCLC and with EKVX NSCLC was above 100 µM each time. For the same compound, the TGI in the assay on OVCAR-3 ovarian, in the assay with COLO 205 colon, with 786-0 renal and in the assay on MALME-3M melanoma was above 100 µM each time.

On to `Cc1nn(-c2ccccc2)c(C)c1/C=N/NC(=O)c1sc(=S)n(-c2ccc(Cl)cc2)c1N`, for which the TGI in the assay with ACHN renal was above 100 µM; in the assay on CAKI-1 renal, 9.68 µM; in the assay with LOX IMVI melanoma it was 8.73 µM; in the assay with HCC-2998 colon, 88.4 µM; in the assay with HOP-62 NSCLC, above 100 µM; with EKVX NSCLC, 8.91 µM. The TGI was above 100 µM in the assay on OVCAR-3 ovarian, 38.9 µM in the assay on COLO 205 colon, 59.9 µM with 786-0 renal and above 100 µM in the assay with MALME-3M melanoma.

On to `O=[N+]([O-])c1ccccc1S(=O)(=O)N1CCCc2cc(Cl)ccc21`, for which the TGI in the assay with ACHN renal, with CAKI-1 renal, in the assay on LOX IMVI melanoma, in the assay with HCC-2998 colon, in the assay with HOP-62 NSCLC and with EKVX NSCLC was above 100 µM each time. Moreover, the TGI in the assay on OVCAR-3 ovarian, in the assay with COLO 205 colon, with 786-0 renal and in the assay on MALME-3M melanoma was above 100 µM in each case.

On to `Cc1cn2c(/C=C3/C(=O)Nc4ccccc43)c(-c3ccccc3)nc2s1`, for which the TGI in the assay with ACHN renal, in the assay on CAKI-1 renal, in the assay with LOX IMVI melanoma, in the assay on HCC-2998 colon, with HOP-62 NSCLC and with EKVX NSCLC was above 100 µM throughout. Moreover, the TGI in the assay with OVCAR-3 ovarian was above 100 µM; in the assay with COLO 205 colon, above 100 µM; with 786-0 renal it was 42.4 µM; in the assay with MALME-3M melanoma, above 100 µM.

In the case of `C#CCNC(Cc1ccccc1)C(=O)O` (stereo not given), the TGI in the assay with ACHN renal, with CAKI-1 renal, with LOX IMVI melanoma, with HCC-2998 colon, in the assay on HOP-62 NSCLC and with EKVX NSCLC was above 100 µM each time. Also, the TGI in the assay on OVCAR-3 ovarian, in the assay with COLO 205 colon, with 786-0 renal and in the assay on MALME-3M melanoma was above 100 µM in each case.

In the case of `COC(=O)c1nc2c(C)c(O)c(O)c([C@H](C)CCC=C(C)C)c2o1`, the TGI is 53.8 µM with ACHN renal; 50.9 µM in the assay on CAKI-1 renal; above 100 µM in the assay with LOX IMVI melanoma; 96.2 µM in the assay with HCC-2998 colon; 67.7 µM in the assay on HOP-62 NSCLC; above 100 µM with EKVX NSCLC. The TGI was above 100 µM with OVCAR-3 ovarian, 35.6 µM in the assay with COLO 205 colon, 39.5 µM in the assay with 786-0 renal and above 100 µM with MALME-3M melanoma.

With `CC(=O)C1=CC=C/C1=N\Nc1ccccc1`, the TGI in the assay with ACHN renal is 23.4 µM; in the assay with CAKI-1 renal, 11.8 µM; in the assay on LOX IMVI melanoma it was 9.02 µM; in the assay with HCC-2998 colon it was 20.5 µM; with HOP-62 NSCLC it was 50.9 µM; in the assay with EKVX NSCLC, 23 µM. In addition, the TGI is 9.57 µM with OVCAR-3 ovarian, 22.9 µM in the assay on COLO 205 colon, 15.4 µM with 786-0 renal and 28.4 µM with MALME-3M melanoma.

As to `CCC(C#N)N(Cc1cccc(CN(C(C)=O)C(C#N)CC)c1)C(C)=O` (stereo not given), the TGI in the assay on ACHN renal, in the assay with CAKI-1 renal, in the assay with LOX IMVI melanoma, with HCC-2998 colon, in the assay with HOP-62 NSCLC and in the assay on EKVX NSCLC was above 100 µM throughout. Further, the TGI in the assay with OVCAR-3 ovarian, in the assay with COLO 205 colon, in the assay with 786-0 renal and with MALME-3M melanoma was above 100 µM in each case.

Consider `CC1OC(OC2C(CO)OC(O[C@H]3CC[C@@]4(C)C(=CC[C@H]5[C@@H]6C[C@@H]7O[C@](O)(CC[C@@H](C)COC8OC(CO)C(O)C(O)C8O)[C@@H](C)[C@@H]7[C@@]6(C)CC[C@@H]54)C3)C(OC3OC(C)C(O)C(O)C3O)C2O)C(O)C(O)C1O` (stereo not given in full), for which the TGI stood at 12.2 µM in the assay with ACHN renal; 8.61 µM in the assay on CAKI-1 renal; 3.17 µM in the assay on LOX IMVI melanoma; 7.28 µM in the assay on HCC-2998 colon; 4.74 µM in the assay on HOP-62 NSCLC; 57.1 µM in the assay with EKVX NSCLC. The TGI in the assay on OVCAR-3 ovarian was determined as 29.8 µM; in the assay with COLO 205 colon, 6.81 µM; in the assay on 786-0 renal, 3.89 µM; in the assay on MALME-3M melanoma, 4.1 µM.

In the case of `C[Si](C)(C)C#C[I+]c1ccccc1`, the TGI was above 100 µM in the assay with ACHN renal; above 100 µM in the assay with CAKI-1 renal; 41.2 µM in the assay on LOX IMVI melanoma; above 100 µM with HCC-2998 colon; above 100 µM with HOP-62 NSCLC; above 100 µM in the assay on EKVX NSCLC. For the same compound, the TGI was 86.2 µM with OVCAR-3 ovarian, 32.9 µM in the assay with COLO 205 colon, above 100 µM in the assay on 786-0 renal and above 100 µM in the assay with MALME-3M melanoma.

Consider `COc1ccc(N=NN2CCCC2)cc1`, for which the TGI with ACHN renal was 29.9 µM; in the assay with CAKI-1 renal, 35.1 µM; in the assay with LOX IMVI melanoma, 37.2 µM; in the assay on HCC-2998 colon it was above 100 µM; in the assay on HOP-62 NSCLC it was above 100 µM; with EKVX NSCLC it was 58.8 µM. In addition, the TGI in the assay with OVCAR-3 ovarian is 43.8 µM; in the assay on COLO 205 colon, 35.5 µM; with 786-0 renal, 32.7 µM; in the assay on MALME-3M melanoma, 39.3 µM.

For `CCOC(=O)c1cc(-c2ccc(OC)c(OC)c2)cn1C`, the TGI in the assay with ACHN renal, in the assay on CAKI-1 renal, in the assay with LOX IMVI melanoma, in the assay with HCC-2998 colon, in the assay with HOP-62 NSCLC and with EKVX NSCLC was above 10 µM each time. In addition, the TGI with OVCAR-3 ovarian, in the assay with COLO 205 colon, in the assay on 786-0 renal and with MALME-3M melanoma was above 10 µM each time.

Consider `CCCCN(CCCC)CC(=O)c1ccc2cc(Cl)c3ccccc3c2c1`, for which the TGI with ACHN renal was 49 µM; with CAKI-1 renal, 78.6 µM; in the assay on LOX IMVI melanoma, above 100 µM; with HCC-2998 colon it was 76.8 µM; with HOP-62 NSCLC, above 100 µM; in the assay with EKVX NSCLC, above 100 µM. Also, the TGI is above 100 µM in the assay on OVCAR-3 ovarian, 34.1 µM with COLO 205 colon, above 100 µM in the assay with 786-0 renal and above 100 µM in the assay with MALME-3M melanoma.

(Values after PubChem BioAssay (NCI).)
